Experimental data reported in ChEMBL document CHEMBL1681742, “Novel second generation analogs of eribulin. Part I: Compounds containing a lipophilic C32 side chain overcome P-glycoprotein susceptibility” (Bioorg Med Chem Lett, 2011).

What was measured:
HCT-15 = test: Antiproliferative activity against human HCT15 cells assessed as growth inhibition; assay type: functional, cell-based
[1] = Fold resistance, ratio of IC50 for antiproliferative activity for P-gp overexpressing human MES-SA/Dx5-Rx1cells to IC50 for antiproliferative activity for human MES-SA cells
DLD-1 = test: Antiproliferative activity against human DLD1 cells assessed as growth inhibition; assay type: functional, cell-based
[2] = Antiproliferative activity against P-gp overexpressing human MES-SA/Dx5-Rx1 cells assessed as growth inhibition; assay type: functional
[3] = Antiproliferative activity against human MES-SA cells assessed as growth inhibition; assay type: functional, cell-based
[4] = Cytotoxicity against human IMR90 cells up to 1 uM; assay type: cell-based; conditions: imr-90

SMILES	IC50 (HCT-15) [nM]	Ratio IC50 [1]	IC50 (DLD-1) [nM]	IC50 [2] [nM]	IC50 [3] [nM]	Activity [4]
C=C1C[C@@H]2CC[C@@]34C[C@H]5O[C@H]6[C@@H](O3)[C@H]3O[C@H](CC[C@@H]3O[C@H]6[C@H]5O4)CC(=O)C[C@@H]3[C@@H](OC)[C@@H](CCC#N)O[C@H]3C[C@H]3O[C@@H](CC[C@@H]1O2)C[C@@H](C)C3=C	0.68	3.88	1.43	2.91	0.75	Non-toxic
C=C1C[C@@H]2CC[C@@]34C[C@H]5O[C@H]6[C@@H](O3)[C@H]3O[C@H](CC[C@@H]3O[C@H]6[C@H]5O4)CC(=O)C[C@@H]3[C@@H](OC)[C@@H](CC)O[C@H]3C[C@H]3O[C@@H](CC[C@@H]1O2)C[C@@H](C)C3=C	–	1.81	–	1.36	1.06	Non-toxic
C=C1C[C@@H]2CC[C@@]34C[C@H]5O[C@H]6[C@@H](O3)[C@H]3O[C@H](CC[C@@H]3O[C@H]6[C@H]5O4)CC(=O)C[C@@H]3[C@@H](OC)[C@@H](C[C@@H](CN=[N+]=[N-])OC)O[C@H]3C[C@H]3O[C@@H](CC[C@@H]1O2)C[C@@H](C)C3=C	0.48	4.19	0.78	1.86	0.44	Non-toxic
C=C1C[C@@H]2CC[C@@]34C[C@H]5O[C@H]6[C@@H](O3)[C@H]3O[C@H](CC[C@@H]3O[C@H]6[C@H]5O4)CC(=O)C[C@@H]3[C@@H](OC)[C@@H](C[C@@H](CN=[N+]=[N-])OCc4ccccc4)O[C@H]3C[C@H]3O[C@@H](CC[C@@H]1O2)C[C@@H](C)C3=C	7.08	7.6	10.6	36.7	4.83	Non-toxic
C=C1C[C@@H]2CC[C@@]34C[C@H]5O[C@H]6[C@@H](O3)[C@H]3O[C@H](CC[C@@H]3O[C@H]6[C@H]5O4)CC(=O)C[C@@H]3[C@@H](OC)[C@@H](C[C@@H](COCC)OCC)O[C@H]3C[C@H]3O[C@@H](CC[C@@H]1O2)C[C@@H](C)C3=C	0.55	4.4	0.8	2.38	0.54	Non-toxic
CC(=O)O[C@H]1C(=O)[C@@]2(C)[C@H]([C@H](OC(=O)c3ccccc3)[C@]3(O)C[C@H](OC(=O)[C@H](O)[C@@H](NC(=O)c4ccccc4)c4ccccc4)C(C)=C1C3(C)C)[C@]1(OC(C)=O)CO[C@@H]1C[C@@H]2O [PACLITAXEL]	–	>338	–	> 1000	2.96	Non-toxic
C=C1C[C@@H]2CC[C@@]34C[C@H]5O[C@H]6[C@@H](O3)[C@H]3O[C@H](CC[C@@H]3O[C@H]6[C@H]5O4)CC(=O)C[C@@H]3[C@@H](OC)[C@@H](CC(=O)OCC)O[C@H]3C[C@H]3O[C@@H](CC[C@@H]1O2)C[C@@H](C)C3=C	0.4	3.21	0.45	1.17	0.37	Non-toxic
C=C1C[C@@H]2CC[C@@]34C[C@H]5O[C@H]6[C@@H](O3)[C@H]3O[C@H](CC[C@@H]3O[C@H]6[C@H]5O4)CC(=O)C[C@@H]3[C@@H](OC)[C@@H](C[C@@H](COC(C)=O)OC(C)=O)O[C@H]3C[C@H]3O[C@@H](CC[C@@H]1O2)C[C@@H](C)C3=C	0.32	8.78	0.44	2.77	0.32	Non-toxic
C=C1C[C@@H]2CC[C@@]34C[C@H]5O[C@H]6[C@@H](O3)[C@H]3O[C@H](CC[C@@H]3O[C@H]6[C@H]5O4)CC(=O)C[C@@H]3[C@@H](OC)[C@@H](CCOC)O[C@H]3C[C@H]3O[C@@H](CC[C@@H]1O2)C[C@@H](C)C3=C	0.24	4.08	0.38	0.78	0.19	Non-toxic
C=C1C[C@@H]2CC[C@@]34C[C@H]5O[C@H]6[C@@H](O3)[C@H]3O[C@H](CC[C@@H]3O[C@H]6[C@H]5O4)CC(=O)C[C@@H]3[C@@H](OC)[C@@H](C[C@@H](CC#N)OC)O[C@H]3C[C@H]3O[C@@H](CC[C@@H]1O2)C[C@@H](C)C3=C	0.61	9.86	1.05	3.9	0.4	Non-toxic
C=C1C[C@@H]2CC[C@@]34C[C@H]5O[C@H]6[C@@H](O3)[C@H]3O[C@H](CC[C@@H]3O[C@H]6[C@H]5O4)CC(=O)C[C@@H]3[C@@H](OC)[C@@H](CC(=O)COC)O[C@H]3C[C@H]3O[C@@H](CC[C@@H]1O2)C[C@@H](C)C3=C	0.62	6.7	0.67	2.92	0.44	Non-toxic
C#CC[C@H]1O[C@H]2C[C@H]3O[C@@H](CC[C@@H]4O[C@@H](CC[C@@]56C[C@H]7O[C@H]8[C@@H](O5)[C@H]5O[C@H](CC[C@@H]5O[C@H]8[C@H]7O6)CC(=O)C[C@@H]2[C@H]1OC)CC4=C)C[C@@H](C)C3=C	0.83	2.75	1.46	2.01	0.73	Non-toxic
C=C1C[C@@H]2CC[C@@]34C[C@H]5O[C@H]6[C@@H](O3)[C@H]3O[C@H](CC[C@@H]3O[C@H]6[C@H]5O4)CC(=O)C[C@@H]3[C@@H](OC)[C@@H](C[C@H]4COCCO4)O[C@H]3C[C@H]3O[C@@H](CC[C@@H]1O2)C[C@@H](C)C3=C	1.24	22.96	0.88	23	1	Non-toxic
C=C1C[C@@H]2CC[C@@]34C[C@H]5O[C@H]6[C@@H](O3)[C@H]3O[C@H](CC[C@@H]3O[C@H]6[C@H]5O4)CC(=O)C[C@@H]3[C@@H](OC)[C@@H](CCCO)O[C@H]3C[C@H]3O[C@@H](CC[C@@H]1O2)C[C@@H](C)C3=C	0.4	18.88	0.47	5.67	0.3	Non-toxic
C=C1C[C@@H]2CC[C@@]34C[C@H]5O[C@H]6[C@@H](O3)[C@H]3O[C@H](CC[C@@H]3O[C@H]6[C@H]5O4)CC(=O)C[C@@H]3[C@@H](OC)[C@@H](CC(=O)O)O[C@H]3C[C@H]3O[C@@H](CC[C@@H]1O2)C[C@@H](C)C3=C	18.3	7.72	17.6	95.5	12.4	Non-toxic
C=C1C[C@@H]2CC[C@@]34C[C@H]5O[C@H]6[C@@H](O3)[C@H]3O[C@H](CC[C@@H]3O[C@H]6[C@H]5O4)CC(=O)C[C@@H]3[C@@H](OC)[C@@H](C[C@H](O)CO)O[C@H]3C[C@H]3O[C@@H](CC[C@@H]1O2)C[C@@H](C)C3=C	0.22	216.5	0.54	6.5	0.03	Non-toxic
C=CCO[C@H](CO)C[C@H]1O[C@H]2C[C@H]3O[C@@H](CC[C@@H]4O[C@@H](CC[C@@]56C[C@H]7O[C@H]8[C@@H](O5)[C@H]5O[C@H](CC[C@@H]5O[C@H]8[C@H]7O6)CC(=O)C[C@@H]2[C@H]1OC)CC4=C)C[C@@H](C)C3=C	0.22	17.19	0.2	4.13	0.24	Non-toxic
COc1cccc2c1C(=O)c1c(O)c3c(c(O)c1C2=O)C[C@@](O)(C(=O)CO)C[C@@H]3O[C@H]1C[C@H](N)[C@H](O)[C@H](C)O1 [DOXORUBICIN]	154	134	–	2700	26.4	Non-toxic
C=C1C[C@@H]2CC[C@@]34C[C@H]5O[C@H]6[C@@H](O3)[C@H]3O[C@H](CC[C@@H]3O[C@H]6[C@H]5O4)CC(=O)C[C@@H]3[C@@H](OC)[C@@H](C[C@H](O)COC(C)=O)O[C@H]3C[C@H]3O[C@@H](CC[C@@H]1O2)C[C@@H](C)C3=C	–	33	–	3.47	0.11	Non-toxic
CC[C@]1(O)C[C@@H]2CN(CCc3c([nH]c4ccccc34)[C@@](C(=O)OC)(c3cc4c(cc3OC)N(C)[C@H]3[C@@](O)(C(=O)OC)[C@H](OC(C)=O)[C@]5(CC)C=CCN6CC[C@]43[C@@H]65)C2)C1 [VINBLASTINE]	28.5	224.18	–	440	2.28	Non-toxic
